System: diarrhea-predominant IBS subjects
Experiment: 3007 Study: open-label 52-week safety study, adverse events and withdrawals
[1] = Overall, N=536, % of appropriate gender

## Cc1nccn1C[C@H]1CCc2c(c3cccc4c3n2CCC4)C1=O [cilansetron, (R)-(−)-4,5,6,8,9,10-hexahydro-10-[(2-methyl-1H-imidazol-1-yl)methyl]-11H-pyrido-[3,2,1-jk]-carbazol-11-one]
Overall, N=536
  TEAE leading to permanent discontinuation: Dyspepsia: 2 (<1%) n (%)
  TEAE leading to permanent discontinuation: Ear and Labyrinth Disorders: 1 (<1%) n (%)
  TEAE leading to permanent discontinuation: Epigastric Discomfort: 1 (<1%) n (%)
  TEAE leading to permanent discontinuation: Eructation: 1 (<1%) n (%)
  TEAE leading to permanent discontinuation: Eye Disorders: 1 (<1%) n (%)
  TEAE leading to permanent discontinuation: Faecal Abnormality NOS: 1 (<1%) n (%)
  TEAE leading to permanent discontinuation: Faecal Impaction: 1 (<1%) n (%)
  TEAE leading to permanent discontinuation: Faecal Incontinence: 1 (<1%) n (%)
  TEAE leading to permanent discontinuation: Faeces Hard: 1 (<1%) n (%)
  TEAE leading to permanent discontinuation: Fatigue: 4 (<1%) n (%)
  TEAE leading to permanent discontinuation: Fibroma NOS: 1 (<1%) n (%)
  TEAE leading to permanent discontinuation: Flatulence: 7 (1%) n (%)
  TEAE leading to permanent discontinuation: Gastric Irritation: 1 (<1%) n (%)
  TEAE leading to permanent discontinuation: Gastrointestinal Disorders: 64 (12%) n (%)
  TEAE leading to permanent discontinuation: Gastrointestinal Motility Disorder NOS: 1 (<1%) n (%)
  TEAE leading to permanent discontinuation: General Disorders and Administration Site Conditions: 7 (1%) n (%)
  TEAE leading to permanent discontinuation: Haemorrhoidal Haemorrhage: 1 (<1%) n (%)
  TEAE leading to permanent discontinuation: Hallucination NOS: 1 (<1%) n (%)
  TEAE leading to permanent discontinuation: Hallucination, Auditory: 1 (<1%) n (%)
  TEAE leading to permanent discontinuation: Headache NOS: 4 (<1%) n (%)
  TEAE leading to permanent discontinuation: Headache NOS Aggravated: 1 (<1%) n (%)
  TEAE leading to permanent discontinuation: Heart Rate Increased: 1 (<1%) n (%)
  TEAE leading to permanent discontinuation: Hepatobiliary Disorders: 1 (<1%) n (%)
  TEAE leading to permanent discontinuation: Hepatosplenomegaly NOS: 1 (<1%) n (%)
  TEAE leading to permanent discontinuation: Hiatus Hernia: 1 (<1%) n (%)
  TEAE leading to permanent discontinuation: Investigations: 5 (<1%) n (%)
  TEAE leading to permanent discontinuation: Irritable Bowel Syndrome Aggravated: 1 (<1%) n (%)
  TEAE leading to permanent discontinuation: Lethargy: 1 (<1%) n (%)
  TEAE leading to permanent discontinuation: Metabolism and Nutrition Disorders: 1 (<1%) n (%)
  TEAE leading to permanent discontinuation: Migraine NOS: 1 (<1%) n (%)
  TEAE leading to permanent discontinuation: Muscle Cramps: 2 (<1%) n (%)
  TEAE leading to permanent discontinuation: Musculoskeletal and Connective Tissue Disorders: 7 (1%) n (%)
  TEAE leading to permanent discontinuation: Nausea: 3 (<1%) n (%)
  TEAE leading to permanent discontinuation: Neoplasms Benign, Malignant and Unspecified (Incl Cysts and Polyps): 5 (<1%) n (%)
  TEAE leading to permanent discontinuation: Nervous System Disorders: 8 (1%) n (%)
  TEAE leading to permanent discontinuation: Pregnancy, Puerperium and Perinatal Conditions: 1 (<1%) n (%)
  TEAE leading to permanent discontinuation: Pruritus NOS: 1 (<1%) n (%)
  TEAE leading to permanent discontinuation: Psychiatric Disorders: 1 (<1%) n (%)
  TEAE leading to permanent discontinuation: Psychotic Disorder NOS: 1 (<1%) n (%)
  TEAE leading to permanent discontinuation: Rash Macular: 1 (<1%) n (%)
  TEAE leading to permanent discontinuation: Rash NOS: 1 (<1%) n (%)
  TEAE leading to permanent discontinuation: Rectal Disorder NOS: 1 (<1%) n (%)
  TEAE leading to permanent discontinuation: Rectal Haemorrhage: 4 (<1%) n (%)
  TEAE leading to permanent discontinuation: Rectal Tenesmus: 1 (<1%) n (%)
  TEAE leading to permanent discontinuation: Renal and Urinary Disorders: 1 (<1%) n (%)
  TEAE leading to permanent discontinuation: Respiratory, Thoracic and Mediastinal Disorders: 3 (<1%) n (%)
  TEAE leading to permanent discontinuation: Skin and Subcutaneous Tissue Disorders: 4 (<1%) n (%)
  TEAE leading to permanent discontinuation: Somnolence: 1 (<1%) n (%)
  TEAE leading to permanent discontinuation: Stomach Discomfort: 1 (<1%) n (%)
  TEAE leading to permanent discontinuation: Suicidal Ideation: 1 (<1%) n (%)
  TEAE leading to permanent discontinuation: Urticaria NOS: 1 (<1%) n (%)
  TEAE leading to permanent discontinuation: Vertigo: 1 (<1%) n (%)
  TEAE leading to permanent discontinuation: Visual Acuity Reduced: 1 (<1%) n (%)
  TEAE leading to permanent discontinuation: Vomiting NOS: 1 (<1%) n (%)
  TEAE leading to permanent discontinuation: White Blood Cells Urine Positive: 1 (<1%) n (%)
  Total Number of Subjects with at Least One TEAE Leading to Discontinuation of Study Medication: 83 (15%) n (%)
[1]
  TEAE leading to permanent discontinuation: Benign Ovarian Tumour*: 1 (<1%) n (%)
  TEAE leading to permanent discontinuation: Breast Cancer NOS*: 2 (<1%) n (%)
  TEAE leading to permanent discontinuation: Ovarian Cancer NOS*: 1 (<1%) n (%)
  TEAE leading to permanent discontinuation: Ovarian Cystadenofibroma*: 1 (<1%) n (%)
  TEAE leading to permanent discontinuation: Pregnancy NOS*: 1 (<1%) n (%)
Overall, gender-specific
  TEAE: Female Reproductive Tract Infections*: 2 (<1%) n (%)
  TEAE: Prostate Examination Abnormal*: 1 (<1%) n (%)
  TEAE: Smear Cervix Abnormal*: 1 (<1%) n (%)
  TEAE: Vaginal Candidiasis*: 2 (<1%) n (%)
  TEAE: Vaginitis Bacterial NOS*: 1 (<1%) n (%)
  TEAE: Vaginitis*: 1 (<1%) n (%)
  TEAE: Vaginosis Fungal NOS*: 2 (<1%) n (%)
P/C group
  TEAE: Abdominal Therapeutic Procedures NEC: 1 (<1%) n (%)
  TEAE: Abdominoplasty: 1 (<1%) n (%)
  TEAE: Abnormal Chest Sounds NOS: 1 (<1%) n (%)
  TEAE: Acne NOS: 0 n (%)
  TEAE: Acnes: 0 n (%)
  TEAE: Acquired Hypothyroidism: 1 (<1%) n (%)
  TEAE: Acrochordons: 1 (<1%) n (%)
  TEAE: Adenomyosis*: 0 n (%)
  TEAE: Age Related Issues: 1 (<1%) n (%)
  TEAE: Allergic Conditions NEC: 2 (<1%) n (%)
  TEAE: Allergies to Foods, Food Additives, Drugs and Other Chemicals: 1 (<1%) n (%)
  TEAE: Allergy to Insect Sting: 1 (<1%) n (%)
  TEAE: Alopecia: 1 (<1%) n (%)
  TEAE: Alopecias: 1 (<1%) n (%)
  TEAE: Amenorrhoea NOS*: 0 n (%)
  TEAE: Anaemia NOS: 1 (<1%) n (%)
  TEAE: Anaemias NEC: 1 (<1%) n (%)
  TEAE: Angina Pectoris: 0 n (%)
  TEAE: Anorexia: 1 (<1%) n (%)
  TEAE: Anxiety: 5 (2%) n (%)
  TEAE: Anxiety Aggravated: 1 (<1%) n (%)
  TEAE: Anxiety Symptoms: 7 (3%) n (%)
  TEAE: Apocrine and Eccrine Gland Disorders: 3 (1%) n (%)
  TEAE: Appetite Disorders: 1 (<1%) n (%)
  TEAE: Arrhythmia NOS: 0 n (%)
  TEAE: Asthenic Conditions: 7 (3%) n (%)
  TEAE: Asthma Aggravated: 0 n (%)
  TEAE: Asthma NOS: 1 (<1%) n (%)
  TEAE: Atopic Disorders: 1 (<1%) n (%)
  TEAE: Atrial Fibrillation: 0 n (%)
  TEAE: Atrioventricular Block First Degree: 0 n (%)
  TEAE: Basal Cell Carcinoma: 4 (1%) n (%)
  TEAE: Behaviour and Socialisation Disturbances: 1 (<1%) n (%)
  TEAE: Benign Ovarian Tumour*: 1 (<1%) n (%)
  TEAE: Biliary Tract Disorder NOS: 1 (<1%) n (%)
  TEAE: Binocular Eye Movement Disorder NOS: 1 (<1%) n (%)
  TEAE: Bladder Disorders NEC: 1 (<1%) n (%)
  TEAE: Bladder Infections and Inflammations: 1 (<1%) n (%)
  TEAE: Bladder Prolapse: 1 (<1%) n (%)
  TEAE: Bladder and Urethral Symptoms: 1 (<1%) n (%)
  TEAE: Blood and Lymphatic System Disorders: 2 (<1%) n (%)
  TEAE: Bone Neoplasm Malignant: 0 n (%)
  TEAE: Bone Neoplasms Malignant (Excl Sarcomas): 0 n (%)
  TEAE: Bradyarrhythmia: 1 (<1%) n (%)
  TEAE: Breast Calcifications*: 1 (<1%) n (%)
  TEAE: Breast Cancer NOS*: 2 (1%) n (%)
  TEAE: Breast Disorder NOS*: 1 (<1%) n (%)
  TEAE: Breast Disorders NEC*: 4 (2%) n (%)
  TEAE: Breast Mass NOS*: 2 (1%) n (%)
  TEAE: Breast and Nipple Neoplasms Malignant*: 2 (1%) n (%)
  TEAE: Breath Sounds Decreased: 0 n (%)
  TEAE: Breathing Abnormalities: 1 (<1%) n (%)
  TEAE: Bronchospasm and Obstruction: 1 (<1%) n (%)
  TEAE: Bruising, Ecchymosis and Purpura: 0 n (%)
  TEAE: Bundle Branch Block Right: 0 n (%)
  TEAE: Calculus Renal NOS: 0 n (%)
  TEAE: Calculus Ureteric: 0 n (%)
  TEAE: Cardiac Conduction Disorders: 0 n (%)
  TEAE: Cardiac Disorders: 6 (2%) n (%)
  TEAE: Cardiac Fibrillation NOS: 1 (<1%) n (%)
  TEAE: Cardiac Flutter: 1 (<1%) n (%)
  TEAE: Cardiac Signs and Symptoms NEC: 2 (<1%) n (%)
  TEAE: Cataract Unilateral: 0 n (%)
  TEAE: Cataracts (Excl Congenital): 1 (<1%) n (%)
  TEAE: Cerumen Impaction: 0 n (%)
  TEAE: Chest Discomfort: 1 (<1%) n (%)
  TEAE: Chest Pain: 4 (1%) n (%)
  TEAE: Chest Tightness: 0 n (%)
  TEAE: Cholecystitis and Cholelithiasis: 0 n (%)
  TEAE: Cholelithiasis: 0 n (%)
  TEAE: Congenital, Familial and Genetic Disorders: 1 (<1%) n (%)
  TEAE: Conjunctival Infections, Irritations and Inflammations: 0 n (%)
  TEAE: Conjunctivitis: 0 n (%)
  TEAE: Conjunctivitis Allergic: 0 n (%)
  TEAE: Contusion: 2 (<1%) n (%)
  TEAE: Cough: 6 (2%) n (%)
  TEAE: Coughing and Associated Symptoms: 6 (2%) n (%)
  TEAE: Cyst NOS: 0 n (%)
  TEAE: Cystitis Interstitial: 1 (<1%) n (%)
  TEAE: Dacryostenosis Acquired: 0 n (%)
  TEAE: Deafness NOS: 0 n (%)
  TEAE: Dehydration: 1 (<1%) n (%)
  TEAE: Depression: 5 (2%) n (%)
  TEAE: Depression Aggravated: 1 (<1%) n (%)
  TEAE: Depressive Disorders: 6 (2%) n (%)
  TEAE: Dermal and Epidermal Conditions NEC: 4 (1%) n (%)
  TEAE: Dermatitis Allergic: 1 (<1%) n (%)
  TEAE: Dermatitis Ascribed to Specific Agent: 1 (<1%) n (%)
  TEAE: Dermatitis Contact: 1 (<1%) n (%)
  TEAE: Dermatitis Medicamentosa: 1 (<1%) n (%)
  TEAE: Dermatitis NOS: 1 (<1%) n (%)
  TEAE: Dermatitis and Eczema: 4 (1%) n (%)
  TEAE: Dermographism: 1 (<1%) n (%)
  TEAE: Diabetes Mellitus (Incl Subtypes): 1 (<1%) n (%)
  TEAE: Diabetes Mellitus Aggravated: 1 (<1%) n (%)
  TEAE: Diabetes Mellitus Non-Insulin-Dependent: 0 n (%)
  TEAE: Disturbances in Initiating and Maintaining Sleep: 0 n (%)
  TEAE: Drug Hypersensitivity: 0 n (%)
  TEAE: Dry Eye NOS: 0 n (%)
  TEAE: Dysfunctional Uterine Bleeding*: 0 n (%)
  TEAE: Dyshidrosis: 1 (<1%) n (%)

— patent US20070093520A1, “Method of treatment of diarrhea-predominant irritable bowel syndrome in a subject” (priority 2005, published 2007)
